{"source": "patent US11420922B2", "about": "“Hydroxylated tropolone inhibitors of nucleotidyl transferases in herpesvirus and Hepatitis B and uses therefor” (Saint Louis University, priority 2015, dated 2022)", "key": {"[1]": {"experiment": "Mouse liver microsome assay", "type": "in vitro ADME", "details": "1 μM in mouse liver microsomes", "outline": "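Mouse liver microsomes at 0.25 μM P450 final in 0.1 M potassium phosphate with 3.3 mM MgCl and 1 μM compound, prewarmed 5 min at 37 °C. Reaction started with NADPH (1.2 mM final); aliquots at 0, 5, 10, 20 and 30 min quenched in cold acetonitrile with EDTA or EGTA, analysed by LC/MS/MS.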"}, "HSV-2 [2]": {"tested_on": "HSV-2", "experiment": "Combination of ACV and compound 118 against HSV-2 in Vero cells (plaque assay, qPCR, Chou-Talalay)", "type": "cell-based, herpes simplex virus 2", "details": "constant ratios, MOI 0.1, 24 h, FIGS. 8A-8C", "description": "After 24 h, the cultures were collected and divided into two aliquots. […] The area below the lines indicates synergism, and the area above indicates antagonism."}, "HSV-2 [3]": {"tested_on": "HSV-2", "experiment": "Anti-HSV-2 replication assay in Vero cells, titers by plaque assay", "type": "cell-based, herpes simplex virus 2"}, "[4]": {"experiment": "Quantitative Vero cell toxicity (MTT)", "type": "cell-based", "details": "African green monkey, Vero cells", "description": "Qualitative assessments of cytotoxicity were done visually by inspecting the cells in the primary screening assays. For the quantitative assays, cells were plated in 96-well plates at 1.0×10^4 per well. The next day the compounds were added at 0.78 to 100 μM in a final concentration of 1% (v/v) DMSO, and the cells were incubated for 24 hours under conditions identical to those employed for the viral replication inhibition assays. Mitochondrial toxicity was measured by incubating the cells with 0.25 mg/mL thiazolyl blue tetrazolium bromide (MTT, Sigma Aldrich Chemical Co.), the cultures were incubated for 60 min, metabolites were solubilized in acidic isopropanol, and absorbance was read at 570 nm. CC50 values were calculated by non-linear curve fitting using GraphPad Prism.\nQuantitative toxicity measurements were conducted for all compounds that suppressed HSV replication by >2 log10 at 5 μM plus a number of compounds with lesser inhibitory activity for comparison. Toxicity was assessed by […]. Cells were plated in 96-well plates at 1.0×10^4 per well. The next day compound was added in concentrations ranging from 0.78 to 100 μM in a final concentration of 1% (v/v) DMSO. The cells were incubated for 24 h under conditions identical to those employed for the viral replication inhibition assays, and then mitochondrial activity was measured with the MTT assay (Sigma Aldrich) according to the manufacturer's instructions. Percent viability was determined for each compound concentration from the […], and then 50% cytotoxic concentrations (CC50) values were calculated by non-linear curve fitting using GraphPad Prism. Consistent with the subjective assessments of toxicity, all compounds selected for quantitative toxicity assessment had CC50 values≥50 μM under these conditions (Table 1)."}}}
{"compound": "Cc1cc(O)c(=O)c(O)cc1C(=O)c1ccc(-c2ccccc2)cc1", "note": "[Compound 118]", "values": [{"measurement": "Non-P450 turn-over", "setting": "[1]", "value": "Potential"}, {"measurement": "half-life at 1 μM", "setting": "[1]; read-out: t ½", "value": 34, "unit": "min"}, {"measurement": "ER", "setting": "[1]; extraction ratio", "value": 0.63}, {"measurement": "CLint scaled at 1 μM", "setting": "[1]; mouse, liver microsomes", "value": 154, "unit": "mL/min/kg"}, {"measurement": "predicted hepatic clearance at 1 μM", "setting": "[1]; mouse, liver microsomes, read-out: CL ′hep", "value": 57, "unit": "mL/min/kg"}, {"measurement": "interaction with ACV on HSV-2 replication and DNA accumulation", "setting": "HSV-2 [2]", "value": "synergistically inhibit"}, {"measurement": "inhibition of wild-type HSV-2, in words", "setting": "HSV-2 [3]; 5 μM, laboratory strain, 24 hr, FIG. 4", "value": "efficiently inhibited"}, {"measurement": "EC50", "setting": "HSV-2 [3]; Human alphaherpesvirus 2, Vero, 24 h, read-out: HSV-2 EC50", "value": 80, "unit": "nM"}, {"measurement": "log reduction at 5 µM", "setting": "HSV-2 [3]; Human alphaherpesvirus 2, Vero, 24 h, read-out: HSV-2 Log suppression 5 μM", "value": 3.22}, {"measurement": "log reduction at 50 µM", "setting": "HSV-2 [3]; Human alphaherpesvirus 2, Vero, 24 h, read-out: HSV-2 Log suppression 50 μM", "value": 5.56}, {"measurement": "CC50 at 24 h", "setting": "[4]", "value": "> 100", "unit": "µM"}]}
